{"source": "patent US20090169487A1", "about": "“Essential Oil Diffusion” (priority 2007, published 2009)", "molecules": {"B1": {"name": "Dornase Alfa: recombinant human DNase which decreases the viscoelasticity of mucous (protein, UniProt P24855 23-282, looked up)", "Deoxyribonuclease-1": "LKIAAFNIQTFGETKMSNATLVSYIVQILSRYDIALVQEVRDSHLTAVGKLLDNLNQDAPDTYHYVVSEPLGRNSYKERYLFVYRPDQVSAVDSYYYDDGCEPCGNDTFNREPAIVRFFSRFTEVREFAIVPLHAAPGDAVAEIDALYDVYLDVQEKWGLEDVMLMGDFNAGCSYVRPSQWSSIRLWTSPTFQWLIPDSADTTATPTHCAYDRIVVAGMLLRGAVVPDSALPFNFQAAYGLSDQLAQAISDHYPVEVMLK"}}, "key": {"[1]": {"details": "asthmatics, double-blind randomized control trial; cited from earlier work"}, "[2]": {"assay": "Case report: diffused essential oils after NAC and Dornase Alfa in a child with RSV, oxygen requirement and atelectasis", "format": "in vivo, human", "details": "for Overall response of oxygen requirement to treatment: summary of the case", "text": "They experienced a three day prodrome of upper and lower respiratory symptoms and increasing oxygen requirement treated initially at home. They were admitted to a local hospital 7 days prior to the current admission where they continued to received oxygen and was started on a 7 day antibiotic course despite a positive respiratory direct fluorescent antibody test for RSV. They were discharged home on 3 liters oxygen and persistent left upper lobe atelectasis. They presented to our pediatric intensive care unit (PICU) within 12 hours of discharge with respiratory distress and central cyanosis, pulse oximetry oxygen saturation (spO2) 83% off oxygen, 88% on 3 liters per minute (LPM) oxygen.\nPast medical history was significant for titanium rib insertion for restrictive lung disease, metal rods for thoracic scoliosis, hip repair for hip dislocation, and gastric feeding tube placement. Their home medication regimen included a multivitamin, calcium carbonate, and levalbuterol 1 unit dose nebulized every 8 hours. Lasix had been added during the prior hospitalization.\nMW was placed on 6 liters humidified, high-flow nasal canula oxygen (NC O2), achieving a spO2 of 93-98%. […] pulmonary toilet regimen consisted of percussor chest physiotherapy every four hours and postural drainage. On day 4 of admission, day 14 of oxygen requirement, nebulized 20% n-acetyl cysteine (NAC) every eight hours was added. Oxygen requirement began to improve over the next 24 hours, weaning to 2 LPM NC O2, but returned to 3 LPM when […] remained persistently below spO2 93%. Nebulized Dornase Alfa 2.5 mg every twelve hours was added on day 7, day 17 of oxygen requirement. Oxygen requirement remained at 3 LPM with frequent desaturations to the mid 80's despite the intensification of mucolytic therapy.\nOn day 8, the previous treatments were discontinued and the essential oil mixture described in TABLE 1, above, including Lavandula latifolia (spike lavender), Thymus mastichina (Spanish marjoram), Abies balsamea (balsam fir), and Mentha×piperita (peppermint) was nebulized at the parents' request. Three drops were applied to a fibrous filter inserted into the base of a fan diffuser (Fan Fuser, Cinegraph, Inc. Seal Beach, Calif.). The mixture was diffused every six hours into the room and passively inhaled by MW. Oxygen requirement was reduced to 1.5 LPM within 12 hours. […] MW was weaned to ¼ LPM NC O2 on the second day of use wand discharged home with an spO2 of 97%, on day 10 of admission, day 20 of oxygen requirement."}}}
{"molecule": "CC12CCC(CC1)C(C)(C)O2", "note": "[eucalyptol, 1,8 cineole]", "values": [{"measurement": "Steroid-sparing effect", "setting": "[1]", "value": "steroid-sparing effects"}]}
{"molecule": "CC(=O)N[C@@H](CS)C(=O)O", "note": "[n-acetyl cysteine (NAC), N-Acetyl Cysteine]", "values": [{"measurement": "Oxygen requirement returned to", "setting": "[2]; on NAC, when they remained persistently below spO2 93%", "value": 3, "unit": "LPM"}, {"measurement": "Oxygen requirement (NC O2)", "setting": "[2]; over the next 24 hours after adding nebulized 20% NAC every eight hours, from 6 liters high-flow", "value": 2, "unit": "LPM"}, {"measurement": "Overall response of oxygen requirement to treatment", "setting": "[2]", "value": "insufficient or worsening response"}]}
{"molecule": "B1", "values": [{"measurement": "Desaturations (spO2)", "setting": "[2]; frequent desaturations despite intensified mucolytic therapy (NAC plus Dornase Alfa)", "value": "mid 80's"}, {"measurement": "Oxygen requirement", "setting": "[2]; nebulized 2.5 mg every twelve hours added on day 7, on top of NAC", "value": 3, "unit": "LPM"}, {"measurement": "Overall response of oxygen requirement to treatment", "setting": "[2]", "value": "insufficient or worsening response"}]}
